One test relates to naïve WT C57BL/6 mice. In words: Hypoferremia in naïve mice. The test is classed as in vivo, mouse. The settings on record: for inhibition in vivo at 10 mg/kg / inhibition in vivo at 30 mg/kg / inhibition in vivo at 100 mg/kg: Mus musculus, po, 3 h, naïve WT C57BL/6 mice, relative to vehicle, read-out: Serum Iron Reduction at 3 h (%); for inhibition in vivo at 10 mg/kg: Dose 10 mg/kg p.o.; for inhibition in vivo at 30 mg/kg: Dose 30 mg/kg p.o.; for inhibition in vivo at 100 mg/kg: Dose 100 mg/kg p.o. How it is done:
Female C57BL/6 mice (Janvier, France) at age of 9 weeks were fed a standard diet (Harlan Provimi Kliba 3436) and treated per os (p.o.) with compounds or the corresponding amount of vehicle at a volume of 10 ml/kg body weight. Fpn inhibitors were formulated in 0.5% methylcellulose/water or 20% cremophor EL/water and dosed p.o. in mice at 10, 30 or 100 mg/kg body weight. Three hours later, mice were pre terminally anesthetized in isoflurane chambers and blood was collected by retro-orbital bleeding. Mice were sacrificed by cervical dislocation and spleens, livers and duodena were harvested and used for biomarker analysis. All experiments have been conducted in compliance with the license approved by the responsible veterinarian authorities. Serum was isolated by centrifugation of blood into gel-containing microtainers and serum iron was determined by the MULTIGENT Iron assay (Abbott Diagnostics, 6K95). Eight mice per group were used and one-way ANOVA with Bonferroni's multiple comparison test was performed to analyze the statistical differences between the experimental groups.

Another test addresses T1, ferroportin (Fpn) (Mus musculus, UniProt Q9JHI9).
T1 construct: host or cells: J774 mouse macrophage cell line, Fe(III)-NTA induced
T1 sequence (Q9JHI9 1-570): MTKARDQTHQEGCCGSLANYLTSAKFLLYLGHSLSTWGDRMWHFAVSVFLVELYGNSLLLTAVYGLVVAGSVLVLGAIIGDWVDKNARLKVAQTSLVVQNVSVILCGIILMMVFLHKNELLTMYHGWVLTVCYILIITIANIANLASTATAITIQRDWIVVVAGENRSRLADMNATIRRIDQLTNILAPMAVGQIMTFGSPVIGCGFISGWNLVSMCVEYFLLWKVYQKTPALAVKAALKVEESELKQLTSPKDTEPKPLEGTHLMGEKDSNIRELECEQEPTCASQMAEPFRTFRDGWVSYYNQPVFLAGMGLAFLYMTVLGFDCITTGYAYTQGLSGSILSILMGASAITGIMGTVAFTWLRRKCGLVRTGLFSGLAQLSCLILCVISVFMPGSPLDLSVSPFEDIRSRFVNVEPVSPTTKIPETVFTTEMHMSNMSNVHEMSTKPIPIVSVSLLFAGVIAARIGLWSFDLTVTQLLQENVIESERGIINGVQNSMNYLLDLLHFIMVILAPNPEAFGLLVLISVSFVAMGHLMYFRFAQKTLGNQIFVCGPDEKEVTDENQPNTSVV
In words: Hepcidin Internalization Assay (J774). The test is classed as cell-based. In short, it runs like this: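 Inhibition of fluorescent TMR-hepcidin uptake via ferroportin was imaged in fixed J774 cells after a 2 h, 37 °C co-incubation with compound dilutions; cells were pre-cultured overnight with 200 μM Fe(III)NTA. Internalized TMR signal per cell (Sum(Mean)) was fitted as log(inhibitor) vs. response for IC50, in triplicate.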

[1] abbreviates: average of multiple measurements, inhibition of TMR-hepcidin (25 nM) internalization into J774 cells, read-out: J774 IC50.
Setting [2] is: injection of synthetic hepcidin in WT naïve mice (Rivera, 2005; FIG. 3A).

Where two headings read alike, the source gives them in different places.

Take `O=C(NC1CCc2cccnc21)c1csc(CCNCc2nc3ccccc3[nH]2)n1` (centres unmarked) [Example 39]: in the test with naïve WT C57BL/6 mice, the inhibition in vivo at 10 mg/kg turned out to be 10%, the inhibition in vivo at 30 mg/kg was determined as 20% and the inhibition in vivo at 100 mg/kg was found to be 35%. Further, the IC50 at ferroportin (Fpn) (setting [1]) is 70 nM.
With `O=C(NCc1ncccc1F)c1cnn(CCNCCc2nc3ccccc3[nH]2)c1` [Example 111], on ferroportin (Fpn) (setting [1]), the 50% inhibitory concentration (IC50) turned out to be 35 nM.
Same read-out and setting: the value for `Cc1oc(CCNCCc2nc3ccccc3[nH]2)nc1C(=O)NCc1ncccc1F` [Example 230] was 140 nM; that for `O=C(NCc1ncccc1Cl)c1coc(CCNCc2nc3ccccc3[nH]2)n1` [Example 141] was 167 nM.
Still for that read-out and setting: with `O=C(NCc1ncccc1F)c1cccc(CNCCc2nc3ccccc3[nH]2)c1` [Example 224] the figure was 140 nM.
In the case of `O=C(NCc1ccccn1)c1coc(CCNCc2nc3ccccc3[nH]2)n1` [Example 137], in the test on naïve WT C57BL/6 mice, the inhibition in vivo at 10 mg/kg is -2%, the inhibition in vivo at 30 mg/kg was 14% and the inhibition in vivo at 100 mg/kg stood at 25%. Also, the IC50 on ferroportin (Fpn) (setting [1]) is 514 nM.
The matching figures for `O=C(NCc1ncccc1F)c1csc(CNCCc2nc3ccccc3[nH]2)n1` [Example 118]: 8%, 24%, 49% and 103 nM.
The matching figures for `O=C(NCc1ncccc1F)c1coc(CCNCCc2nc3c(F)cccc3[nH]2)n1` [Example 228]: 13%, 26%, 55% and 46 nM.
`O=C(NCc1ncccc1Cl)c1cnn(CCNCc2nc3ccccc3[nH]2)c1` [Example 138]: the IC50 at ferroportin (Fpn) (setting [1]) worked out at 179 nM.
On to `O=C(NCc1ncccc1F)c1coc(CCNCCc2nc3cc(F)ccc3[nH]2)n1` [Example 250], for which, in the test on naïve WT C57BL/6 mice, the inhibition in vivo at 10 mg/kg was 5%, the inhibition in vivo at 30 mg/kg was found to be 18% and the inhibition in vivo at 100 mg/kg is 40%. In addition, the IC50 at ferroportin (Fpn) (setting [1]) is 14 nM.
As for `O=C(NCc1ncccc1F)c1csc(CCNCC(F)(F)c2nc3ccccc3[nH]2)n1` [Example 196], the IC50 on ferroportin (Fpn) (setting [1]) was determined as 1130 nM.
On the same count and under the same terms, with `O=C(NCc1ncccc1F)c1ncn(CCNCc2nc3ccccc3[nH]2)n1` [Example 169] the figure was 750 nM; with `O=C(NCc1ncccc1F)c1csc(CCNCCc2nc3cc(F)ccc3[nH]2)n1` [Example 120], 34 nM.
The same measure, in the same setting: with `O=C(NCc1ncccc1F)c1coc(CCNCCc2nc3c(Cl)cccc3[nH]2)n1` [Example 226] the figure was 49 nM; with `O=C(NCc1ncccc1F)c1csc(CCCNCc2nc3ccccc3[nH]2)n1` [Example 134], 377 nM.
Consider `O=C(NCc1ncccc1F)c1coc(C2CN(CCc3nc4c(F)cccc4[nH]3)C2)n1` [Example 239], for which, in the test with naïve WT C57BL/6 mice, the inhibition in vivo at 10 mg/kg came to 12%, the inhibition in vivo at 30 mg/kg was 20% and the inhibition in vivo at 100 mg/kg was 51%. At ferroportin (Fpn) (setting [1]), the IC50 was 36 nM.
The corresponding values for `O=C(NCc1ccccn1)c1csc(CCNCc2nc3ccccc3[nH]2)n1` [Example 12] are 15%, 20%, 45% and 80 nM.
For `O=C(NCc1ncccc1F)c1ncn(CCNCCc2nc3ccccc3[nH]2)n1` [Example 181], the IC50 on ferroportin (Fpn) (setting [1]) was found to be 135 nM.
The same measure, in the same setting: with `O=C(NCc1ncccc1F)c1nc(CCNCc2nc3ccccc3[nH]2)sc1Cl` [Example 151] the figure was 111 nM; with `O=C(NCc1ncccc1F)c1csc(CCN(CCc2nc3ccccc3[nH]2)CCc2nc3ccccc3[nH]2)n1` [Example 152], 4 nM.
On the same count and under the same terms, with `O=C(NCc1cccnn1)c1nc(CCNCc2nc3ccccc3[nH]2)sc1Cl` [Example 161] the figure was 361 nM; with `O=C(NCc1cccnn1)c1csc(CCNCCc2nc3ccccc3[nH]2)n1` [Example 122], 26 nM; with `O=C(NCc1ncccc1F)c1csc(CCNCCc2nc3c(F)cccc3[nH]2)n1` [Example 243], 32 nM.
Take `O=C(NCc1ncccc1F)c1nc(CCNCCc2nc3ccccc3[nH]2)sc1Cl` [Example 154]: in the test on naïve WT C57BL/6 mice, the inhibition in vivo at 10 mg/kg worked out at 13%, the inhibition in vivo at 30 mg/kg is 35% and the inhibition in vivo at 100 mg/kg amounted to 56%. Besides, on ferroportin (Fpn) (setting [1]), the IC50 amounted to 8.3 nM.
With `O=C(NCc1ncccc1F)c1coc(CCNCCc2nc3c(F)cc(F)cc3[nH]2)n1` [Example 249], the IC50 at ferroportin (Fpn) (setting [1]) is 40 nM.
On the same count and under the same terms, with `O=C(NC1CCc2cccnc21)c1csc(CCNCCc2nc3ccccc3[nH]2)n1` (centres unmarked) [Example 158] the figure was 47 nM.
`O=C(NCc1ncccc1F)c1coc(CCNCc2nc3ccccc3[nH]2)n1` [Example 126]: in the test on naïve WT C57BL/6 mice, the inhibition in vivo at 10 mg/kg was found to be 7%, the inhibition in vivo at 30 mg/kg turned out to be 23% and the inhibition in vivo at 100 mg/kg came to 62%. For the same compound, at ferroportin (Fpn) (setting [1]), the IC50 stood at 96 nM.
In the case of `CC[C@H](C)[C@@H]1NC(=O)[C@@H](NC(=O)[C@@H](NC(=O)[C@@H]2CCCN2C(=O)[C@H](Cc2ccccc2)NC(=O)[C@H](Cc2c[nH]cn2)NC(=O)[C@@H](NC(=O)[C@@H](N)CC(=O)O)[C@@H](C)O)[C@@H](C)CC)CSSC[C@@H](C(=O)N[C@@H](CCCCN)C(=O)N[C@H](C(=O)O)[C@@H](C)O)NC(=O)[C@@H]2CSSC[C@@H]3NC(=O)[C@@H]4CSSC[C@H](NC(=O)[C@H](Cc5ccccc5)NC1=O)C(=O)N[C@@H](CSSC[C@H](NC(=O)[C@H](CCCCN)NC(=O)[C@H](CO)NC(=O)[C@H](CCCNC(=N)N)NC(=O)[C@H](Cc1c[nH]cn1)NC3=O)C(=O)NCC(=O)N[C@@H](CCSC)C(=O)N2)C(=O)NCC(=O)N4` [hepcidin, reference compound], in the test on naïve WT C57BL/6 mice (setting [2]), the “reduction of serum iron levels from the vehicle control” value is recorded as 40-50% and the “time of maximal effect on serum iron post treatment” value was 3 to 4 h. In addition, 15 ± 11 nM corresponded to half-maximal inhibition at ferroportin (Fpn) (IC50 of unlabeled hepcidin in the hepcidin internalization assay, J774 cells, TMR-hepcidin 25 nM) (IC50).
Take `O=C(NCc1ncccc1Cl)c1csc(CCNCc2nc3ccccc3[nH]2)n1` [Example 82]: the IC50 on ferroportin (Fpn) (setting [1]) came out at 6 nM.
Consider `Cc1cnccc1CNC(=O)c1csc(CCNCc2nc3ccccc3[nH]2)n1` [Example 90], for which, in the test on naïve WT C57BL/6 mice, the inhibition in vivo at 10 mg/kg amounted to 0%, the inhibition in vivo at 30 mg/kg is 0% and the inhibition in vivo at 100 mg/kg is 40%. Besides, the IC50 at ferroportin (Fpn) (setting [1]) amounted to 25 nM.
Regarding `O=C(NCc1ncc(F)cc1F)c1csc(CCNCCc2nc3ccccc3[nH]2)n1` [Example 116], the IC50 on ferroportin (Fpn) (setting [1]) came out at 1000 nM.
For the compound `O=C(NCc1ncccc1F)c1cncc(C2CN(CCc3nc4ccccc4[nH]3)C2)c1` [compound 237], in the test with naïve WT C57BL/6 mice, the inhibition in vivo at 10 mg/kg is 0%, the inhibition in vivo at 30 mg/kg came to 15% and the inhibition in vivo at 100 mg/kg came out at 27%. Moreover, the IC50 at ferroportin (Fpn) (setting [1]) is 81 nM.
`O=C(NCc1ncccc1Cl)c1cnn(CCNCCc2nc3ccccc3[nH]2)c1` [Example 144]: the IC50 at ferroportin (Fpn) (setting [1]) was determined as 12 nM.

What is called IC50 is the point on the concentration scale where inhibition reaches its midpoint.

Values taken from patent US10738041B2, “Ferroportin inhibitors” (Vifor (International) AG, priority 2015, dated 2020).
